# Test system: pSTAT5 and pERK in patient-derived AML cells
# Assay: Cytokine-induced pSTAT5 and pERK in patient-derived AML cells
# Assay type: cell-based, human
# Details: for pERK relative expression, FOLD / pSTAT5 relative expression, FOLD: fold over unstimulated; for pSTAT5 FOLD: relative expression vs Unstimulated
# Description: All bone marrow or peripheral blood samples from patients with AML were collected after informed consent, in accordance with guidelines approved by the Human Research Ethics Committee of Alfred Health. Human AML cells were thawed, washed, and adjusted to 2 × 10^6 cells/mL in Iscove’s Modified Dulbecco’s Media (#12440053, Gibco, Grand Island NY, USA) supplemented with Glutamax 2 mM (Gibco) and 1% v/v Penicillin/Streptomycin (Gibco). […] For cytokine-mediated signalling assays, cells were incubated with vehicle or Dynole 34-2 for 1 h, and subsequently stimulated with either 25 ng/mL rhIL-3 (#200-03, Pepro Tech), 25 ng/mL rhGM-CSF (#300-03, Pepro Tech) or 125 ng/mL rhSCF (#300-07, Pepro Tech) at 37 °C for 20 min. Cells were washed twice using cold PBS 1× and flow cytometry analyses were done on single-cell suspensions using BD Pharmingen antibodies against human CD45 (#557748), IL-3R (CD123, #560087), GM-CSFR alpha chain (CD116, #554532) and BioLegend antibody against human KIT (A3C6E2). For assessing intracellular levels of pSTAT5 and phospho-ERK, flow cytometry analyses were performed in duplicate on patient-derived AML cells as described in the FACS analysis section. The MFI observed without stimulation was reported as 1.
smiles,measurement,setting,value
"CCCCCCCCNC(=O)C(C#N)=Cc1cn(CCCN(C)C)c2ccccc12 [Dynole 34-2, 2-Cyano-N-octyl-3-(1-(3-dimethylaminopropyl)-1H-indol-3-yl)-acrylamide]","pERK relative expression, MFI",AML01-021,1807 MFI
same,"pSTAT5 relative expression, MFI",AML01-021,4941 MFI
same,pStat5 (MFI),AML01-021,2538 MFI
same,"pERK relative expression, FOLD",AML01-021,1.07 FOLD
same,"pSTAT5 relative expression, FOLD",AML01-021,1.87 FOLD
same,pSTAT5 FOLD,AML01-021,1.02
same,"pERK relative expression, MFI",AML01-050,10447 MFI
same,"pSTAT5 relative expression, MFI",AML01-050,19500 MFI
same,pStat5 (MFI),AML01-050,29884 MFI
same,"pERK relative expression, FOLD",AML01-050,1.28 FOLD
same,"pSTAT5 relative expression, FOLD",AML01-050,0.97 FOLD
same,pSTAT5 FOLD,AML01-050,0.84
same,"pERK relative expression, MFI",AML01-072,2195 MFI
same,"pSTAT5 relative expression, MFI",AML01-072,18325 MFI
same,pStat5 (MFI),AML01-072,10160 MFI
same,"pERK relative expression, FOLD",AML01-072,1.01 FOLD
same,"pSTAT5 relative expression, FOLD",AML01-072,0.91 FOLD
same,pSTAT5 FOLD,AML01-072,0.88
same,"pERK relative expression, MFI",AML01-226,1574 MFI
same,"pSTAT5 relative expression, MFI",AML01-226,673 MFI
same,pStat5 (MFI),AML01-226,511 MFI
same,"pERK relative expression, FOLD",AML01-226,1.05 FOLD
same,"pSTAT5 relative expression, FOLD",AML01-226,0.89 FOLD
same,pSTAT5 FOLD,AML01-226,1.01
same,"pERK relative expression, MFI",AML01-307,2891 MFI
same,"pSTAT5 relative expression, MFI",AML01-307,12933 MFI
same,pStat5 (MFI),AML01-307,10786 MFI
same,"pERK relative expression, FOLD",AML01-307,1.06 FOLD
same,"pSTAT5 relative expression, FOLD",AML01-307,1.07 FOLD
same,pSTAT5 FOLD,AML01-307,1.08
same,"pERK relative expression, MFI",AML02-078,5047 MFI
same,"pSTAT5 relative expression, MFI",AML02-078,31582 MFI
same,pStat5 (MFI),AML02-078,31914 MFI
same,"pERK relative expression, FOLD",AML02-078,0.79 FOLD
same,"pSTAT5 relative expression, FOLD",AML02-078,1.24 FOLD
same,pSTAT5 FOLD,AML02-078,1.05
same,"pERK relative expression, MFI",AML02-123,4380 MFI
same,"pSTAT5 relative expression, MFI",AML02-123,22757 MFI
same,pStat5 (MFI),AML02-123,30741 MFI
same,"pERK relative expression, FOLD",AML02-123,1.16 FOLD
same,"pSTAT5 relative expression, FOLD",AML02-123,1.15 FOLD
same,pSTAT5 FOLD,AML02-123,1.00
same,"pERK relative expression, MFI",AML02-232,1644 MFI
same,"pSTAT5 relative expression, MFI",AML02-232,1406 MFI
same,pStat5 (MFI),AML02-232,688 MFI
same,"pERK relative expression, FOLD",AML02-232,1.04 FOLD
same,"pSTAT5 relative expression, FOLD",AML02-232,1.59 FOLD
same,pSTAT5 FOLD,AML02-232,0.73
same,"pERK relative expression, MFI",AML03-330,10652 MFI
same,"pSTAT5 relative expression, MFI",AML03-330,5650 MFI
same,pStat5 (MFI),AML03-330,6696 MFI
same,"pERK relative expression, FOLD",AML03-330,0.97 FOLD
same,"pSTAT5 relative expression, FOLD",AML03-330,1.04 FOLD
same,pSTAT5 FOLD,AML03-330,1.02
same,"pERK relative expression, MFI",AML03-331,1814 MFI
same,"pSTAT5 relative expression, MFI",AML03-331,1899 MFI
same,pStat5 (MFI),AML03-331,2344 MFI
same,"pERK relative expression, FOLD",AML03-331,0.94 FOLD
same,"pSTAT5 relative expression, FOLD",AML03-331,1.03 FOLD
same,pSTAT5 FOLD,AML03-331,1.02
same,"pERK relative expression, MFI",AML4,1091 MFI
same,"pSTAT5 relative expression, MFI",AML4,3442 MFI
same,pStat5 (MFI),AML4,3071 MFI
same,"pERK relative expression, FOLD",AML4,1.13 FOLD
same,"pSTAT5 relative expression, FOLD",AML4,0.95 FOLD
same,pSTAT5 FOLD,AML4,0.85
same,"pERK relative expression, MFI",AML16,2510 MFI
same,"pSTAT5 relative expression, MFI",AML16,17405 MFI
same,pStat5 (MFI),AML16,13885 MFI
same,"pERK relative expression, FOLD",AML16,0.44 FOLD
same,"pSTAT5 relative expression, FOLD",AML16,0.88 FOLD
same,pSTAT5 FOLD,AML16,0.70
same,"pERK relative expression, MFI",AML17,822 MFI
same,"pSTAT5 relative expression, MFI",AML17,3831 MFI
same,pStat5 (MFI),AML17,3091 MFI
same,"pERK relative expression, FOLD",AML17,0.99 FOLD
same,"pSTAT5 relative expression, FOLD",AML17,1.02 FOLD
same,pSTAT5 FOLD,AML17,1.01
same,"pERK relative expression, MFI",AML18,985 MFI
same,"pSTAT5 relative expression, MFI",AML18,4716 MFI
same,pStat5 (MFI),AML18,4188 MFI
same,"pERK relative expression, FOLD",AML18,0.99 FOLD
same,"pSTAT5 relative expression, FOLD",AML18,0.86 FOLD
same,pSTAT5 FOLD,AML18,1.02
same,"pERK relative expression, MFI",AML34,2315 MFI
same,pStat5 (MFI),AML34,10444 MFI
same,"pERK relative expression, FOLD",AML34,0.84 FOLD
same,pSTAT5 FOLD,AML34,1.43
same,"pERK relative expression, MFI",AML54,2163 MFI
same,pStat5 (MFI),AML54,4818 MFI
same,"pERK relative expression, FOLD",AML54,0.94 FOLD
same,pSTAT5 FOLD,AML54,0.89
same,downstream signalling (pSTAT5) in human AML cells,result in words,blocked downstream signalling

# — paper PMC7719179, “Small molecule inhibition of Dynamin-dependent endocytosis targets multiple niche signals and impairs leukemia stem cells” (Nature Communications, 2020)
